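In this assay, cells in 96-well plates receive the compound at five concentrations for 48 hours. Endpoints are linearly interpolated between the surrounding concentrations. TGI: total growth inhibition.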
Key:
Assay in all cases: NCI anticancer screen, dose series, 48 h
CCRF-CEM leukemia = tested on: CCRF-CEM leukemia
NCI-H23 lung = tested on: NCI-H23 lung
ACHN renal = tested on: ACHN renal
NCI-H522 lung = tested on: NCI-H522 lung
HL-60(TB) leukemia = tested on: HL-60(TB) leukemia
HOP-62 NSCLC = tested on: HOP-62 NSCLC
HCT-116 colon = tested on: HCT-116 colon
SK-MEL-28 melanoma = tested on: SK-MEL-28 melanoma
OVCAR-5 ovarian = tested on: OVCAR-5 ovarian
SF-539 CNS = tested on: SF-539 CNS
U251 CNS = tested on: U251 CNS
MDA-MB-231 breast = tested on: MDA-MB-231 breast
K-562 leukemia = tested on: K-562 leukemia
SW-620 colon = tested on: SW-620 colon
TK-10 renal = tested on: TK-10 renal
UACC-62 melanoma = tested on: UACC-62 melanoma
COLO 205 colon = tested on: COLO 205 colon
MALME-3M melanoma = tested on: MALME-3M melanoma
SR leukemia = tested on: SR leukemia
SF-295 CNS = tested on: SF-295 CNS
M14 melanoma = tested on: M14 melanoma
SNB-19 CNS = tested on: SNB-19 CNS
OVCAR-3 ovarian = tested on: OVCAR-3 ovarian
T-47D breast = tested on: T-47D breast
NCI-H226 lung = tested on: NCI-H226 lung
NCI/ADR-RES ovarian = tested on: NCI/ADR-RES ovarian
SF-268 CNS = tested on: SF-268 CNS
SK-MEL-2 melanoma = tested on: SK-MEL-2 melanoma
PC-3 prostate = tested on: PC-3 prostate
CAKI-1 renal = tested on: CAKI-1 renal
MCF7 breast = tested on: MCF7 breast
OVCAR-8 ovarian = tested on: OVCAR-8 ovarian
IGROV1 ovarian = tested on: IGROV1 ovarian
A498 renal = tested on: A498 renal
MOLT-4 leukemia = tested on: MOLT-4 leukemia
OVCAR-4 ovarian = tested on: OVCAR-4 ovarian
BT-549 breast = tested on: BT-549 breast
HS 578T breast = tested on: HS 578T breast
SK-OV-3 ovarian = tested on: SK-OV-3 ovarian
A549 NSCLC = tested on: A549 NSCLC
RPMI-8226 leukemia = tested on: RPMI-8226 leukemia
SK-MEL-5 melanoma = tested on: SK-MEL-5 melanoma
786-0 renal = tested on: 786-0 renal
SN12C renal = tested on: SN12C renal
NCI-H460 lung = tested on: NCI-H460 lung
HCT-15 colon = tested on: HCT-15 colon
MDA-MB-435 = tested on: MDA-MB-435
LOX IMVI melanoma = tested on: LOX IMVI melanoma
KM12 colon = tested on: KM12 colon
RXF 393 renal = tested on: RXF 393 renal
MDA-N = tested on: MDA-N
SNB-75 CNS = tested on: SNB-75 CNS
DU-145 prostate = tested on: DU-145 prostate
EKVX NSCLC = tested on: EKVX NSCLC
HT29 colon = tested on: HT29 colon
UACC-257 melanoma = tested on: UACC-257 melanoma
UO-31 renal = tested on: UO-31 renal
HCC-2998 colon = tested on: HCC-2998 colon
HOP-92 NSCLC = tested on: HOP-92 NSCLC

`O=CNc1ncn[nH]1` was tested, and the TGI (CCRF-CEM leukemia) was > 100 µM, the TGI (NCI-H23 lung) was > 100 µM and the TGI (ACHN renal) was > 100 µM. For the same compound, the TGI (NCI-H522 lung) was > 100 µM, the TGI (HL-60(TB) leukemia) was > 100 µM and the TGI (HOP-62 NSCLC) was > 100 µM. The TGI (HCT-116 colon) was > 100 µM, the TGI (SK-MEL-28 melanoma) was > 100 µM and the TGI (OVCAR-5 ovarian) was > 100 µM. The TGI (SF-539 CNS) was > 100 µM, the TGI (U251 CNS) was > 100 µM and the TGI (MDA-MB-231 breast) was > 100 µM. For the same compound, the TGI (K-562 leukemia) was > 100 µM, the TGI (SW-620 colon) was > 100 µM and the TGI (TK-10 renal) was > 100 µM. For the same compound, the TGI (UACC-62 melanoma) was > 100 µM, the TGI (COLO 205 colon) was > 100 µM and the TGI (MALME-3M melanoma) was > 100 µM. For the same compound, the TGI (SR leukemia) was > 100 µM, the TGI (SF-295 CNS) was > 100 µM and the TGI (M14 melanoma) was > 100 µM. For the same compound, the TGI (SNB-19 CNS) was > 100 µM, the TGI (OVCAR-3 ovarian) was > 100 µM and the TGI (T-47D breast) was > 100 µM. The TGI (NCI-H226 lung) was > 100 µM, the TGI (NCI/ADR-RES ovarian) was > 100 µM and the TGI (SF-268 CNS) was > 100 µM. For the same compound, the TGI (SK-MEL-2 melanoma) was > 100 µM, the TGI (PC-3 prostate) was > 100 µM and the TGI (CAKI-1 renal) was > 100 µM. For the same compound, the TGI (MCF7 breast) was > 100 µM, the TGI (OVCAR-8 ovarian) was > 100 µM and the TGI (IGROV1 ovarian) was > 100 µM. For the same compound, the TGI (A498 renal) was > 100 µM, the TGI (MOLT-4 leukemia) was > 100 µM and the TGI (OVCAR-4 ovarian) was > 100 µM. The TGI (BT-549 breast) was > 100 µM, the TGI (HS 578T breast) was > 100 µM and the TGI (SK-OV-3 ovarian) was > 100 µM. The TGI (A549 NSCLC) was > 100 µM, the TGI (RPMI-8226 leukemia) was > 100 µM and the TGI (SK-MEL-5 melanoma) was > 100 µM. For the same compound, the TGI (786-0 renal) was > 100 µM, the TGI (SN12C renal) was > 100 µM and the TGI (NCI-H460 lung) was > 100 µM. For the same compound, the TGI (HCT-15 colon) was > 100 µM, the TGI (MDA-MB-435) was > 100 µM and the TGI (LOX IMVI melanoma) was > 100 µM. The TGI (KM12 colon) was > 100 µM, the TGI (RXF 393 renal) was > 100 µM and the TGI (MDA-N) was > 100 µM. The TGI (SNB-75 CNS) was > 100 µM, the TGI (DU-145 prostate) was > 100 µM and the TGI (EKVX NSCLC) was > 100 µM. The TGI (HT29 colon) was > 100 µM, the TGI (UACC-257 melanoma) was > 100 µM and the TGI (UO-31 renal) was > 100 µM.

`COC(=O)[C@@H]1CN(C(C)=O)C(=O)N1C(=O)OCc1ccccc1` was tested, and the TGI (CCRF-CEM leukemia) was > 100 µM, the TGI (NCI-H23 lung) was > 100 µM and the TGI (ACHN renal) was > 100 µM. For the same compound, the TGI (NCI-H522 lung) was > 100 µM, the TGI (HL-60(TB) leukemia) was > 100 µM and the TGI (HOP-62 NSCLC) was > 100 µM. The TGI (HCT-116 colon) was > 100 µM, the TGI (SK-MEL-28 melanoma) was > 100 µM and the TGI (OVCAR-5 ovarian) was > 100 µM. The TGI (SF-539 CNS) was > 100 µM, the TGI (U251 CNS) was > 100 µM and the TGI (MDA-MB-231 breast) was > 100 µM. For the same compound, the TGI (K-562 leukemia) was > 100 µM, the TGI (SW-620 colon) was > 100 µM and the TGI (TK-10 renal) was > 100 µM. For the same compound, the TGI (COLO 205 colon) was > 100 µM, the TGI (MALME-3M melanoma) was > 100 µM and the TGI (SR leukemia) was > 100 µM. The TGI (HCC-2998 colon) was > 100 µM, the TGI (SF-295 CNS) was > 100 µM and the TGI (M14 melanoma) was > 100 µM. For the same compound, the TGI (SNB-19 CNS) was > 100 µM, the TGI (HOP-92 NSCLC) was > 100 µM and the TGI (OVCAR-3 ovarian) was > 100 µM. The TGI (T-47D breast) was > 100 µM, the TGI (NCI-H226 lung) was > 100 µM and the TGI (NCI/ADR-RES ovarian) was > 100 µM. For the same compound, the TGI (SF-268 CNS) was > 100 µM, the TGI (SK-MEL-2 melanoma) was > 100 µM and the TGI (PC-3 prostate) was > 100 µM. The TGI (CAKI-1 renal) was > 100 µM, the TGI (OVCAR-8 ovarian) was > 100 µM and the TGI (IGROV1 ovarian) was > 100 µM. For the same compound, the TGI (A498 renal) was > 100 µM, the TGI (MOLT-4 leukemia) was > 100 µM and the TGI (OVCAR-4 ovarian) was > 100 µM. For the same compound, the TGI (HS 578T breast) was > 100 µM, the TGI (SK-OV-3 ovarian) was > 100 µM and the TGI (A549 NSCLC) was > 100 µM. The TGI (RPMI-8226 leukemia) was > 100 µM, the TGI (SK-MEL-5 melanoma) was > 100 µM and the TGI (786-0 renal) was > 100 µM. The TGI (SN12C renal) was > 100 µM, the TGI (NCI-H460 lung) was > 100 µM and the TGI (HCT-15 colon) was > 100 µM. The TGI (MDA-MB-435) was > 100 µM, the TGI (LOX IMVI melanoma) was > 100 µM and the TGI (KM12 colon) was > 100 µM. The TGI (RXF 393 renal) was > 100 µM, the TGI (MDA-N) was > 100 µM and the TGI (DU-145 prostate) was > 100 µM. The TGI (EKVX NSCLC) was > 100 µM, the TGI (HT29 colon) was > 100 µM and the TGI (UACC-257 melanoma) was > 100 µM. For the same compound, the TGI (UO-31 renal) was > 100 µM.

With `COC(CC1(/C=C/O[Si](C(C)C)(C(C)C)C(C)C)C(=O)N(C)c2ccccc21)OC` (centres undefined) the TGI (CCRF-CEM leukemia) was > 100 µM, the TGI (NCI-H23 lung) was > 100 µM and the TGI (ACHN renal) was > 100 µM. For the same compound, the TGI (HL-60(TB) leukemia) was > 100 µM, the TGI (HOP-62 NSCLC) was > 100 µM and the TGI (HCT-116 colon) was > 100 µM. The TGI (SK-MEL-28 melanoma) was > 100 µM, the TGI (OVCAR-5 ovarian) was > 100 µM and the TGI (U251 CNS) was > 100 µM. For the same compound, the TGI (MDA-MB-231 breast) was > 100 µM, the TGI (K-562 leukemia) was > 100 µM and the TGI (SW-620 colon) was > 100 µM. The TGI (UACC-62 melanoma) was > 100 µM, the TGI (COLO 205 colon) was > 100 µM and the TGI (SR leukemia) was > 100 µM. For the same compound, the TGI (HCC-2998 colon) was > 100 µM, the TGI (SF-295 CNS) was > 100 µM and the TGI (M14 melanoma) was > 100 µM. The TGI (SNB-19 CNS) was > 100 µM, the TGI (HOP-92 NSCLC) was > 100 µM and the TGI (OVCAR-3 ovarian) was > 100 µM. The TGI (T-47D breast) was > 100 µM, the TGI (NCI-H226 lung) was 90 µM and the TGI (NCI/ADR-RES ovarian) was 78.4 µM. For the same compound, the TGI (SF-268 CNS) was > 100 µM, the TGI (SK-MEL-2 melanoma) was > 100 µM and the TGI (PC-3 prostate) was > 100 µM. For the same compound, the TGI (CAKI-1 renal) was > 100 µM, the TGI (MCF7 breast) was > 100 µM and the TGI (OVCAR-8 ovarian) was > 100 µM. For the same compound, the TGI (A498 renal) was > 100 µM, the TGI (MOLT-4 leukemia) was > 100 µM and the TGI (OVCAR-4 ovarian) was > 100 µM. The TGI (HS 578T breast) was 45.2 µM, the TGI (SK-OV-3 ovarian) was > 100 µM and the TGI (A549 NSCLC) was > 100 µM. The TGI (RPMI-8226 leukemia) was > 100 µM, the TGI (SK-MEL-5 melanoma) was > 100 µM and the TGI (786-0 renal) was 71.6 µM. For the same compound, the TGI (SN12C renal) was > 100 µM, the TGI (NCI-H460 lung) was > 100 µM and the TGI (HCT-15 colon) was > 100 µM. For the same compound, the TGI (MDA-MB-435) was > 100 µM, the TGI (LOX IMVI melanoma) was > 100 µM and the TGI (KM12 colon) was > 100 µM. For the same compound, the TGI (RXF 393 renal) was > 100 µM, the TGI (MDA-N) was > 100 µM and the TGI (SNB-75 CNS) was > 100 µM. The TGI (DU-145 prostate) was > 100 µM, the TGI (EKVX NSCLC) was > 100 µM and the TGI (UACC-257 melanoma) was > 100 µM. The TGI (UO-31 renal) was > 100 µM.
